#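 Growth conditions: 96-well plates. Treatment: test compound, 48 hours, 5 concentrations. Analysis: linear interpolation between bracketing concentrations; unreached endpoints set to highest concentration. GI50 = concentration required for 50% inhibition of growth.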 Calls of active or inactive are those of the source. No stated cut-off is given here; in the data, active = GI50 up to about 1.1 µM and inactive = higher.
# Experiments:
# Assay in all cases: DTP human tumour cell line panel, 48 h
# [1] = system: SK-MEL-28
# [2] = system: HCT-116
# [3] = system: BT-549
# [4] = system: RXF 393
# [5] = system: A498
# [6] = system: 786-0
# [7] = system: MCF7
# [8] = system: SNB-19
# [9] = system: KM12
# [10] = system: U-251
# [11] = system: EKVX
# [12] = system: OVCAR-5
# [13] = system: OVCAR-3
# [14] = system: RPMI-8226
# [15] = system: K562
# [16] = system: HCT-15
# [17] = system: Hs-578T
# [18] = system: NCI-H522
# [19] = system: HOP-92
# [20] = system: PC-3
SMILES,GI50 [1],GI50 [2],GI50 [3],GI50 [4],GI50 [5],GI50 [6],GI50 [7],GI50 [8],GI50 [9],GI50 [10],GI50 [11],GI50 [12],GI50 [13],GI50 [14],GI50 [15],GI50 [16] [µM],GI50 [17],GI50 [18],GI50 [19],GI50 [20]
CS(=O)(=O)OCCn1c(=O)n(CCOS(C)(=O)=O)c(=O)n(CCOS(C)(=O)=O)c1=O,> 100 µM (inactive),> 100 µM (inactive),> 100 µM (inactive),> 100 µM (inactive),> 100 µM (inactive),> 100 µM (inactive),> 100 µM (inactive),> 100 µM (inactive),> 100 µM (inactive),> 100 µM (inactive),> 100 µM (inactive),> 100 µM (inactive),> 100 µM (inactive),> 100 µM (inactive),> 100 µM (inactive),> 100,,,,
CC1=NN(c2cccc(Cl)c2)C(=N/c2nc3ccccc3s2)/C1=C\c1ccccc1O,27.4 µM (inactive),26.7 µM (inactive),,38.1 µM (inactive),23.2 µM (inactive),30.1 µM (inactive),29.3 µM (inactive),,38.9 µM (inactive),23.8 µM (inactive),64.9 µM (inactive),61.7 µM (inactive),19.2 µM (inactive),34.8 µM (inactive),37 µM (inactive),27.6,22 µM (inactive),20 µM (inactive),24.4 µM (inactive),20.5 µM (inactive)
O=C(Nc1nc2ccc([N+](=O)[O-])cc2[n+]([O-])n1)C(F)(F)F,47.2 µM (inactive),19.8 µM (inactive),94.2 µM (inactive),54.8 µM (inactive),29.6 µM (inactive),36.1 µM (inactive),20 µM (inactive),49.8 µM (inactive),29.1 µM (inactive),30.2 µM (inactive),,41.8 µM (inactive),> 10 µM (inactive),15 µM (inactive),20 µM (inactive),16.6,,21 µM (inactive),56.1 µM (inactive),28.2 µM (inactive)
COc1ccc(S(=O)(=O)Nc2ccc(-c3csc(N4C(=O)/C(=C/c5ccccc5[N+](=O)[O-])N=C4c4ccccc4)n3)cc2)cc1Cl,98.2 µM (inactive),38.8 µM (inactive),,50.8 µM (inactive),23.8 µM (inactive),> 100 µM (inactive),66.8 µM (inactive),59 µM (inactive),50.6 µM (inactive),37.2 µM (inactive),,73.6 µM (inactive),26 µM (inactive),,39.5 µM (inactive),29,40.4 µM (inactive),35.9 µM (inactive),23.3 µM (inactive),32.6 µM (inactive)
Cc1ccc2ccccc2c1NC1=NCCO1,> 100 µM (inactive),45.5 µM (inactive),,> 100 µM (inactive),,> 100 µM (inactive),82 µM (inactive),27.2 µM (inactive),75.3 µM (inactive),> 100 µM (inactive),> 100 µM (inactive),> 100 µM (inactive),,36.2 µM (inactive),56.9 µM (inactive),> 100,24.9 µM (inactive),,11.8 µM (inactive),
c1ccc(CC2COC(c3cccs3)=N2)cc1 (stereo unspecified),> 100 µM (inactive),54.7 µM (inactive),54.8 µM (inactive),24.5 µM (inactive),,> 100 µM (inactive),17.9 µM (inactive),> 70.3 µM (inactive),> 89.3 µM (inactive),53 µM (inactive),66.2 µM (inactive),> 100 µM (inactive),> 86.5 µM (inactive),> 70.3 µM (inactive),46.6 µM (inactive),38.3,49.5 µM (inactive),> 84.7 µM (inactive),21.4 µM (inactive),
CC(=O)CC1(C)OC(N)=C(C#N)C1(C#N)C#N (stereo unspecified),> 100 µM (inactive),71.6 µM (inactive),,> 100 µM (inactive),> 100 µM (inactive),> 100 µM (inactive),> 100 µM (inactive),> 100 µM (inactive),> 100 µM (inactive),> 100 µM (inactive),> 100 µM (inactive),> 100 µM (inactive),,> 100 µM (inactive),,43.9,> 100 µM (inactive),48.9 µM (inactive),74.6 µM (inactive),> 100 µM (inactive)
O=[N+]([O-])/C(C(Cl)=C(Cl)Cl)=C(\N1CCOCC1)n1nnc2ccccc21,22.5 µM (inactive),18.7 µM (inactive),19 µM (inactive),,16.9 µM (inactive),22 µM (inactive),19.7 µM (inactive),14.3 µM (inactive),20.2 µM (inactive),16.7 µM (inactive),17.9 µM (inactive),21.1 µM (inactive),19.8 µM (inactive),52.6 µM (inactive),,15.4,,16 µM (inactive),18.3 µM (inactive),17.1 µM (inactive)

# From ChEMBL document CHEMBL1201862, “PubChem BioAssay data set” (2004)
